Source: patent US10093973B2, “Polymerase compositions and methods” (LIFE TECHNOLOGIES CORPORATION, priority 2009, dated 2018)
Numbering of substitutions follows the chain as printed.

Assays:
Type in all cases: biochemical
[1] = system: AF647-C6-dG6P and Alexa Fluor 546 dye-labeled primer-template duplex; assay: Stopped-flow measurement of tpol (nucleotide incorporation kinetics); set-up: unit not given here; settings: tpol = 1/kpol; 7 μM AF647-C6-dG6P, 330 nM polymerase, 100 nM template/primer duplex, 2 mM MnCl2
Procedure: In this example, the t−1 and tpol values of a Phi-29 polymerase comprising the amino acid sequence of SEQ ID NO: 1 and a modified B103 polymerase comprising the amino acid sequence of SEQ ID NO: 8 (referred to as “mB103 in the table below) and further including amino acid substitutions at various positions were measured using a stopped-flow procedure. The stopped-flow techniques for measuring tpol (1/kpol) followed the techniques described by MP Roettger (2008 Biochemistry 47:9718-9727; M. Bakhtina 2009 Biochemistry 48:3197-320).
Stopped-Flow Measurements of tpol
The template sequence (SEQ ID NO: 44) further included an Alexa Fluor 546 dye moiety bonded to the 5′ position of the template.
The kinetics of nucleotide incorporation by each polymerase was measured in an Applied Photophysics SX20 stopped-flow spectrometer by monitoring changes in fluorescence from the dye-labeled primer-template duplex complexed to enzyme, following the mixing of the enzyme-DNA complex with dye-labeled nucleotides. These dye-labeled nucleotides comprise terminal-phosphate-labeled nucleotides having an alkyl linker with a functional amine group attached to the dye, and have the general structure shown in FIG. 11. This structure includes a sugar bonded to a hexaphosphate chain at the 5′ carbon position, and to a nucleotide base (denoted as “N”). The terminal phosphate group of the hexaphosphate is linked to a 6-carbon linker, and the other end of the 6-carbon linker is attached to a dye moiety (denoted as “dye”), typically through an amide bond. In this example, the particular dye-labeled nucleotide added was a labeled nucleotide hexaphosphate comprising a guanine base at the N (base) position and an Alexa Fluor 647 (AF647) at the dye position, and is referred to herein as “AF647-C6-dG6P”.
The primer and template were annealed to form a dye-labeled primer-template duplex using standard methods. This duplex was preincubated with polymerase. The mixture included 330 nM recombinant DNA polymerase, 100 nM template/primer duplex in buffer (“reaction buffer”) comprising 50 mM Tris-HCl, pH 7.5, 50 mM NaCl, 4 mM DTT, 0.2% BSA, and 2 mM MnCl2. The dye-labeled nucleotide AF647-C6-dG6P was then added to a final concentration of 7 μM, and the resulting fluorescence was monitored over time.
The averaged (5 traces) stopped-flow fluorescence traces (>1.5 ms) were fitted with a double exponential equation (1) to extrapolate the rates of the nucleotide binding and product release, Fluorescence=A1*e^−k1*t+A2*e^−kpol*t+C (equation 1) where A1 and A2 represent corresponding fluorescence amplitudes, C is an offset constant, and k1 and kpol are the observed rate constants for the fast and slow phases of the fluorescence transition, respectively.

[2] = system: ωdN4P and non-extendible AF546 primer:template duplex; assay: Stopped-flow t−1 measurement of Example 7; settings: modified versus reference polymerase, ωdN4P 14 μM
Procedure: In this example, the t−1 values of an exemplary modified polymerase comprising the amino acid of SEQ ID NO: 8 and an exemplary reference polymerase comprising the amino acid sequence of SEQ ID NO: 20 were measured and compared. These kinetic parameters were evaluated using an assay system wherein mixtures comprising a test polymerase and a primer:template duplex were mixed in a stopped-flow assay with nucleotides. To measure t−1, the primer used to form the primer:template duplex was a non-extendible primer including a dideoxynucleotide at its 3′ end, and the template was a synthetic DNA template comprising a donor Alexa Fluor 546 moiety at its 5′ end. […] The ternary complex was mixed with unlabeled nucleotides in a stopped-flow experiment, and the resulting fluorescence was monitored as described below. […]
Preincubated mixtures comprising 200 nM of a primer:templex duplex, 660 nM of test polymerase, and 14 μM of ωdN4P were prepared and then mixed with a solution comprising the unlabeled cognate nucleotide (50 μM) in a stopped-flow apparatus. The fluorescence at both 546 nm and 647 nm was monitored following mixing. The averaged stopped-flow fluorescence traces were fitted with a single exponential function having the form of Equation (1) to extrapolate the t−1 value of the test polymerase.

primer-template duplex = assay: Fractional extension activity assay; settings: versus reference RB69 (SEQ ID NO: 15) and His-tagged Phi-29 (SEQ ID NO: 20); 330 nM enzyme, 1 μM dNTP, room temperature, 10 seconds
Procedure: The fractional extension activity of an exemplary modified polymerase having the amino acid of SEQ ID NO: 8 (referred to as “B104(exo-)” in FIG. 3) was measured and compared to the fractional extension activities of two different exemplary reference polymerases, including an RB69 reference polymerase comprising the amino acid sequence SEQ ID NO: 15 and a His-tagged Phi-29 reference polymerase comprising the amino acid sequence of SEQ ID NO: 20 (referred to herein as “HP1 polymerase”). All polymerases were prepared according to the method of Example 1. Both modified and reference polymerases were evaluated and compared in an assay to measure the fractional extension activity of each polymerase, i.e., the fraction of nucleic acid templates that are extended by at least one nucleotide in a polymerase reaction. In this assay, the fractional extension activity of a polymerase is defined as the fraction (measured as a percentage fraction) of nucleic acid templates that are extended by at least one nucleotide by the test or reference polymerase under the following reaction conditions: 50 mM Tris, pH 7.0, 50 mM NaCl, 1 mM MnCl2, 1 μM dNTP, 330 nM enzyme, 100 nM primer-template duplex and 0.5% BSA, wherein the extension is performed at room temperature for 10 seconds.
The primer-template duplex was formed by annealing the following polynucleotides: […]

In the case of “mB103 (SEQ ID: 8): B103 polymerase triple mutant with D166A, F383L and D384N”, the tpol [1] is reported as 14, the “estimated t−1 values” [2] is reported as “comparable” and the fractional extension activity (primer-template duplex) is reported as “higher”.
